In ChEMBL document CHEMBL1122571, “Design and synthesis of tetrahedral intermediate analogues as potential dihydroorotase inhibitors” (J Med Chem, 1984) one finds IC50 data, which are given here for 5 molecules.

For this assay, the target named is Multifunctional protein CAD (Mus musculus, UniProt B2RQC6). Nature of the assay: Compound was evaluated for the inhibition of dihydroorotase enzyme from mouse Ehrlich ascites at the concentration of 10 uM and at pH 7.37. Particulars: read-out: I50.
Multifunctional protein CAD, sequence (B2RQC6 whole entry): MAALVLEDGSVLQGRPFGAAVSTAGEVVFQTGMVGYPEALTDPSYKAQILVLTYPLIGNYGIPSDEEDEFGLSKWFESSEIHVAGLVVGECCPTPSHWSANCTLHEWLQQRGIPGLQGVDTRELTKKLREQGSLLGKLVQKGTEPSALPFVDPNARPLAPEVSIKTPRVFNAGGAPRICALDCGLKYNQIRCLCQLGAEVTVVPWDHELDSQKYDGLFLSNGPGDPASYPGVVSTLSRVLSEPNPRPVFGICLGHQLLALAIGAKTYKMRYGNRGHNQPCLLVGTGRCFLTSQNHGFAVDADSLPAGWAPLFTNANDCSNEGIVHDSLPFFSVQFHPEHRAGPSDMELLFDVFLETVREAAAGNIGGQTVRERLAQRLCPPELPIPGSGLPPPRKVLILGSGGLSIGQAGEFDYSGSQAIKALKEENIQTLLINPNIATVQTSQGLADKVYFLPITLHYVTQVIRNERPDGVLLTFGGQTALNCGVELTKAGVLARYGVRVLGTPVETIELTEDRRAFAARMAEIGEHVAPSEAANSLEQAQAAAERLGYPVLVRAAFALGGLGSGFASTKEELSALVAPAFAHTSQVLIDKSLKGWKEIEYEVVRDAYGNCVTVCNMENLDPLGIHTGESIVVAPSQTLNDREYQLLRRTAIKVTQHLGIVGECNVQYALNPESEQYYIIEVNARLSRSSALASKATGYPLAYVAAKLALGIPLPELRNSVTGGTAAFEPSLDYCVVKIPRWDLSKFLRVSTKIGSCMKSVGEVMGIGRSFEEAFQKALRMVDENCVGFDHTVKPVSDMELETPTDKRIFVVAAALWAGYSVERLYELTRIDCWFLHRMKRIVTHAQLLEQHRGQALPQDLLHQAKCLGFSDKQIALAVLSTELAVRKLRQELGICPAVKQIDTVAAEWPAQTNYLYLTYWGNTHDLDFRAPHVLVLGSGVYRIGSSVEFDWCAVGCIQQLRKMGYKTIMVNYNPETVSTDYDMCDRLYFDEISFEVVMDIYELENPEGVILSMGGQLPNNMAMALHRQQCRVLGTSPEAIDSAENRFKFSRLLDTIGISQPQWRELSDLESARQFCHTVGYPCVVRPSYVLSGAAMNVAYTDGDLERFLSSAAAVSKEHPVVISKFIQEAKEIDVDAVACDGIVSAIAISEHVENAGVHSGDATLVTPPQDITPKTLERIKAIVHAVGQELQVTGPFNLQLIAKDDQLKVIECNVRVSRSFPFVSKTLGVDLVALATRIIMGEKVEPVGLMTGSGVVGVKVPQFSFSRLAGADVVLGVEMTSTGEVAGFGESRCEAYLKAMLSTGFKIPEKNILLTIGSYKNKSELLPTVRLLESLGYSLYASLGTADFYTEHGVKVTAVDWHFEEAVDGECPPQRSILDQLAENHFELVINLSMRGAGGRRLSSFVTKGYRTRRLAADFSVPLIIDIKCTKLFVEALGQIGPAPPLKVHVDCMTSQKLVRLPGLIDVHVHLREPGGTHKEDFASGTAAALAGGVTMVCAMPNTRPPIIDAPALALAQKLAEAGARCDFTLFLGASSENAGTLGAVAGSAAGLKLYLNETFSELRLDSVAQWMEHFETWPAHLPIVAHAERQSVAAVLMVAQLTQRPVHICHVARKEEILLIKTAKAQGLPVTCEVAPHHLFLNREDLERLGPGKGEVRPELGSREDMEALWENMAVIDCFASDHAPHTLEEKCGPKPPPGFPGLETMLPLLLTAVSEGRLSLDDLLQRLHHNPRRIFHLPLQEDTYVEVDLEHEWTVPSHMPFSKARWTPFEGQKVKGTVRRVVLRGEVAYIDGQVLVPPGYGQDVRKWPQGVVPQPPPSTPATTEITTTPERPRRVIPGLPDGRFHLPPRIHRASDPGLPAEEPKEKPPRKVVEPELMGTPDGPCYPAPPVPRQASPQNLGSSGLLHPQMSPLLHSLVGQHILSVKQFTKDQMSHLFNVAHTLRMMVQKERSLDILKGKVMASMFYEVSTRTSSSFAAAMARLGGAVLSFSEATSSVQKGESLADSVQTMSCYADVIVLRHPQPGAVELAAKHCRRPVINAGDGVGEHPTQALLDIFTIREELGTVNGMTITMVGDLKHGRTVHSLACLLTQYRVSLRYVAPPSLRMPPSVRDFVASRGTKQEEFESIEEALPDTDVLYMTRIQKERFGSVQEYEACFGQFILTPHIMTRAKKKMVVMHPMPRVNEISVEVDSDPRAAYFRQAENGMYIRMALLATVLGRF

`C[S+]1([O-])=NC(=O)NC(C(=O)O)C1` (stereo not given): the IC50 was over 1000 µM.
The figure for `O=C1C[S+]([O-])CC(C(=O)O)N1` (stereo not given) is 180 µM; for `NC(=O)NC(CP(=O)(O)O)C(=O)O` (stereo not given) it is over 1000 µM; for `O=C1NC(C(=O)O)CS(=O)(=O)N1` (stereo not given) it is 520 µM.
`O=C1CSCC(C(=O)O)N1` (stereo not given): the IC50 is under 1000 µM.
